Several values for one entry are separate records, joined by “and”; a condition that tells them apart may be missing. Equal entries are not always repeated. Where two headings read alike, the source gives them in different places.

The target in assay [1] is T1, E. coli MurB (Escherichia coli, UniProt P08373). In words: Absorbance method measuring NADPH depletion at 340 nm (MurB activity). It is filed as biochemical. As for the experimental part:
(§1) The inhibition of E. coli MurB by (2R)-2-{2-[3-(4-tert-butylphenoxy)phenyl]-4-oxo-1,3-thiazolidin-3-yl} hexanoic acid, a 4-thiazolidinone compound, was studied by the same method. Reactions were carried in 50 mM Tris, pH 8.0, 1 mM TCEP, 20 mM KCl, 0.005% Triton, in the presence of 100 μM NADPH and 60 μM EP. The concentration of MurB was 1.3 nM.
Other kinetic measurements were performed to further characterize E. coli MurB by ITC.

Assay [2] deals with T1, E. coli MurB. In words: ITC assay of E. coli MurB activity. The format is biochemical. As for the experimental part:
E. coli MurB was diluted in assay buffer (50 mM Tris pH 8.0, 1 mM TCEP, 20 mM KCl, 0.005% Triton X-100) to a final concentration of 1.3 nM. The buffer contained the MurB substrates at the following concentrations in the ITC test cell: 100 μM NADPH and 60 μM UDP-GlcNAc-EP. DMSO was also added at a final concentration of 2.7% (v/v).
as §1

Assay [3] has as its target T2, E. coli GyrAB (Escherichia coli, UniProt P0AES6). In words: Independent assay of GyrAB enzyme activity using phosphate detection. The format is biochemical. Conditions: read-out: Ki, ADP.
In assay [4] the target is T2, E. coli GyrAB. Put plainly: ITC assay of E. coli GyrAB ATPase activity. The format is biochemical. Conditions: read-out: Ki, ADP. As for the experimental part:
The titration was started manually after the DP signal was stabilized.
The data were analyzed as follows: the power value (μcal/sec) after each injection is subtracted from the initial power value (before any injection occurs).

For assay [5], the target named is T3, E. coli MurC (Escherichia coli, UniProt P17952). Put plainly: biochemical. As for the experimental part:
E. coli MurC was diluted in assay buffer (50 mM Tris pH 8.0, 1 mM Tris (2-carboxyethyl) phosphine hydrochloride (TCEP), 0.01% (w/v) Triton X-100, 20 mM ammonium formate) to a final concentration of 10 nM. […] The titration was started manually after the DP signal was stabilized. A total of 16 injections (2, 2, 4, 4, 4, 4, 8, 8, 16, 16, 32, 32, 32, 32, 32, and 32 μl) were performed. Time spacing in between injections was set at 120 sec for all injections.
All the reactions were carried in 50 mM Tris, pH 8.0, 1 mM TCEP, 0.01% (w/v) Triton, and 20 mM ammonium formate. The final concentration of E. coli MurC was 10 nM. […] The reaction was initiated with the addition of MurC and placed into the test cell. AMP-PCP was dissolved in the buffer described above at a final concentration of 2.8 mM and placed into the titration syringe.

Assay [6] deals with T3, E. coli MurC. In words: biochemical. The source holds these as a separate data set.

T1 sequence (P08373 whole entry): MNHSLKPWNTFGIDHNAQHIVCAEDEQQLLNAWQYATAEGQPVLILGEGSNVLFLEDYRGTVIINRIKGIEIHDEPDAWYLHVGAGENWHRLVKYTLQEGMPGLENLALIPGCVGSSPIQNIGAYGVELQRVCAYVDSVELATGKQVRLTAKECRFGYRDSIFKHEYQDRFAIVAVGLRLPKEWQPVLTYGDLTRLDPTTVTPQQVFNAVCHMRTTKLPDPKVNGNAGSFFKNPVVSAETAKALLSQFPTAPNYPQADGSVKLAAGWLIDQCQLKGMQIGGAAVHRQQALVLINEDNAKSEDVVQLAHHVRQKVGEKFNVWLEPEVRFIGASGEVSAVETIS
T3 sequence (P17952 whole entry): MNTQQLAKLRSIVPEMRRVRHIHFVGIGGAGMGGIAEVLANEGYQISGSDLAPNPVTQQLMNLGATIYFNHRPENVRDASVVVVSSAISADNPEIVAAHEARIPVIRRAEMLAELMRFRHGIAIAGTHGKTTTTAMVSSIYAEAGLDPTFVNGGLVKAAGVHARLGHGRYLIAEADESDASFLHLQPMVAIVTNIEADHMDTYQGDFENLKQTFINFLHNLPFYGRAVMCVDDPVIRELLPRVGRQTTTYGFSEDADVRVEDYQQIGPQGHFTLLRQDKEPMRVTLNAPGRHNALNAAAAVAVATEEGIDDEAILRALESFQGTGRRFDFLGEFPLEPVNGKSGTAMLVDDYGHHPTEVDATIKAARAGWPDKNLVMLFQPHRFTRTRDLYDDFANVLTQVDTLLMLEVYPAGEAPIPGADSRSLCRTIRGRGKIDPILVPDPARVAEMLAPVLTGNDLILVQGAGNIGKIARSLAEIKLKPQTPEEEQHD

Usually IC50 stands for the concentration that gives 50% inhibition. In the case of `CCCC[C@H](C(=O)O)N1C(=O)CSC1c1cccc(Oc2ccc(C(C)(C)C)cc2)c1` (stereo partly drawn) [4-thiazolidinone analogue, (2R)-2-{2-[3-(4-tert-butylphenoxy)phenyl]-4-oxo-1,3-thiazolidin-3-yl} hexanoic acid], the IC50 came out at 101 µM on E. coli MurB [1] (NADPH depletion at 340 nm, read-out: 4-thiazolidinone analogue IC50) and 154 µM on E. coli MurB [2] (1.3 nM MurB, 100 μM NADPH, 60 μM UDP-GlcNAc-EP, read-out: 4-thiazolidinone analogue IC50).

In general, Ki refers to a measure of affinity in units of concentration, obtained from inhibition or displacement. In the case of `Nc1ncnc2c1ncn2[C@@H]1O[C@H](COP(=O)(O)OP(=O)(O)O)[C@@H](O)[C@H]1O` [ADP], the Ki at E. coli GyrAB [3] and on E. coli GyrAB [4] was 18 µM in each case.

Take `Nc1ncnc2c1ncn2[C@@H]1O[C@H](COP(=O)(O)OP(=O)(O)CP(=O)(O)O)[C@@H](O)[C@H]1O` [AMP-PCP, β,γ-Methyleneadenosine 5′-triphosphate]: the IC50 on E. coli MurC [5] is 27 µM; on E. coli MurC [6] (AMP-PCP IC50), 40 µM and 35 µM.

In general, Km refers to the substrate concentration at which the rate is half of its maximum. As for `NC(=O)C1=CN([C@@H]2O[C@H](COP(=O)(O)OP(=O)(O)OC[C@H]3O[C@@H](n4cnc5c(N)ncnc54)[C@H](OP(=O)(O)O)[C@@H]3O)[C@@H](O)[C@H]2O)C=CC1` [NADPH], the Km was determined as 9 µM on E. coli MurB [1] (read-out: KM, NADPH) and 9 µM on E. coli MurB [2] (read-out: KM, NADPH).

On to `C=C(O[C@H]1[C@H](O)[C@@H](CO)O[C@H](OP(=O)(O)OP(=O)(O)OC[C@H]2O[C@@H](n3ccc(=O)[nH]c3=O)[C@H](O)[C@@H]2O)[C@@H]1NC(C)=O)C(=O)O` [UDP-GlcNAc−EP, uridine diphosphate-GlcNAc-enolpyruvate], for which the Michaelis-Menten constant (Km) on E. coli MurB [1] (read-out: KM, UDP-GlcNAc-EP) came to 6 µM; at E. coli MurB [2] (read-out: KM, UDP-GlcNAc-EP), 8 µM.

Consider `CC(=O)N[C@H]1[C@@H](OP(=O)(O)OP(=O)(O)OC[C@H]2O[C@@H](n3ccc(=O)[nH]c3=O)[C@H](O)[C@@H]2O)O[C@H](CO)[C@@H](O)[C@@H]1O[C@H](C)C(=O)O` [UDP-MurNAc], for which the Km on E. coli MurC [5] (ITC, read-out: KM, UDP-MurNAc) came to 21 µM; on E. coli MurC [6] (Phosphate detection, read-out: KM, UDP-MurNAc), 19 µM.
